In assay [1] the test system is CD4+ T cells from tumor-draining LN of TS/A-LACK tumor-bearing 16.2β mice. In words: IL-7-driven accumulation of fast-proliferating memory CD4+ T cells with inhibitors. The assay is classed as cell-based. As to conditions: IL-7-driven cultures, 7 days. The text has this:
FIG. 11. Intermediate memory CD4^+ T cells accumulate in the presence of IL-7 in a cell-density dependent, CsA-sensitive manner. Cells derived from the axillary, brachial and inguinal LN of naïve (A, B) and TS/A-LACK tumor-bearing (C-E) 16.20 mice were labeled with CFSE and respectively cultured for 7 days in plain medium, in the presence of LACK peptide (Ag) (A, B) or IL-7 (C-E) in the absence (nil) or in the presence of the indicated inhibitors. At the end of the culture the cells were stimulated for 5 h with L/28 aAPCs, and intracellular cytokine release was determined. A-D) Histograms show the CFSE dilution profile of equivalent numbers of (7×10^4) CD4^+ T cells. In A and C the thin lines reflect the CFSE profile of CD4+ T cells cultured in plain medium, while the thick lines depict the CFSE profile of CD4+ T cells cultured in Ag or IL-7, respectively. […]
(§1) 5 μm polystyrene sulfate latex beads (Interfacial Dynamics) were coated with I-A^d/LACK dimers (20 μg/ml) and anti-CD28 mAb (37.51; 2 μg/ml) (LACK aAPC) or with anti-CD28 mAb only (control aAPC). Coating of the proteins was monitored by flow cytometry analysis. […] The total number of Ag-specific IL-2^+/IFN-γ^+ T cells was determined by multiplying the percentage by the total number of Trypan Blue-negative LN cells.

In assay [2] the test system is naïve CD4+ T cells of 16.2β mice stimulated with LACK-pulsed APC. The assay is described as follows: Ag-driven proliferation of naive T cells with inhibitors (CFSE). The assay is classed as cell-based. The conditions noted are these: 7 days. The text has this: FIG. 11. Intermediate memory CD4^+ T cells accumulate in the presence of IL-7 in a cell-density dependent, CsA-sensitive manner. Cells derived from the axillary, brachial and inguinal LN of naïve (A, B) and TS/A-LACK tumor-bearing (C-E) 16.20 mice were labeled with CFSE and respectively cultured for 7 days in plain medium, in the presence of LACK peptide (Ag) (A, B) or IL-7 (C-E) in the absence (nil) or in the presence of the indicated inhibitors. At the end of the culture the cells were stimulated for 5 h with L/28 aAPCs, and intracellular cytokine release was determined. A-D) Histograms show the CFSE dilution profile of equivalent numbers of (7×10^4) CD4^+ T cells. In A and C the thin lines reflect the CFSE profile of CD4+ T cells cultured in plain medium, while the thick lines depict the CFSE profile of CD4+ T cells cultured in Ag or IL-7, respectively. In B and D, thin line: cells cultured in the absence of the inhibitor, thick line: cells cultured in the presence of the inhibitor. E) Dot plots are shown after gating on viable CD4^+ T cells. Percentages indicate the frequency of LACK-specific cytokine secreting cells.
Twenty days after tumor cell injection mice were sacrificed and the axillary, brachial and inguinal peripheral lymph nodes (LN) draining and distal (non draining LN) to the site of tumor growth were recovered. […]

Assay [3] has as its system LACK-specific CD4+ T cells from LN of TS/A-LACK tumor-bearing BALB/c mice. The assay is described as follows: Ag-free short-term culture: I-Ad/LACK multimer staining, LACK-specific intracellular cytokine release, CFSE dilution. The conditions noted are these: CFSE-labeled LN cells, 7 days, versus nil cultures. The assay is classed as cell-based. As to the method:
Twenty days after tumor cell injection mice were sacrificed and the axillary, brachial and inguinal peripheral lymph nodes (LN) draining and distal (non draining LN) to the site of tumor growth were recovered. In the experiments of dendritic cell (DC) vaccination, mice were sacrificed fourteen days after DC administration and the axillary, brachial and inguinal LN were surgically excised. LN cells were cultured in 24 well plates at the density of 5×10^6 in complete medium in the absence or in the presence of recombinant murine IL-7 (200 ng/ml), IL-2 (20 ng/ml), IL-6 (45 ng/ml), or IL-15 (100 ng/ml) (all from Peprotech). In parallel cultures, cells were in vitro stimulated with the LACK-derived MHC II-restricted peptide (5 (25)) and 5×10^6 irradiated syngeneic splenocytes. As a control similar cultures were set up from syngeneic naïve mice. […]
as §1

Assay [4] has as its system AH-1-specific CD8+ T cells. In words: Cytokine-driven culture of tumor-draining LN, AH-1-specific intracellular cytokine release. As to conditions: 7 days culture without Ag re-stimulation; undetectable ex vivo. The assay is classed as cell-based, BALB/c mice. The method, then: FIG. 10. IL-7 favors the accumulation of tumor-specific memory CD8^+ T cells otherwise undetectable ex vivo. A) BALB/c mice (5 mice per group) were challenged with 3×10^5 TS/A-LACK tumor cells and sacrificed 21 days later. Cells from pools of tumor draining LN (A-C) were analyzed ex vivo (A) and after 7 days in culture in the absence or in the presence of IL-7, IL-2, IL-15, IL-6 (B-C). A) Representative dot plots depict IL-2 and IFN-γ production by KJ1.26^− CD8^+ T cells. The frequency (A, B) and total number (C) of AH-1-specific cytokine-producing KJ1.26^− CD8^+ T cells is reported.
(§2) Twenty days after tumor cell injection mice were sacrificed and the axillary, brachial and inguinal peripheral lymph nodes (LN) draining and distal (non draining LN) to the site of tumor growth were recovered. In the experiments of dendritic cell (DC) vaccination, mice were sacrificed fourteen days after DC administration and the axillary, brachial and inguinal LN were surgically excised. […]
as §1

Assay [5] deals with CD4+ T cells from TS/A-LACK tumor draining LN. In words: TO-PRO-3 viability of CFSE-labeled LN cultures maintained in cytokines. The assay is classed as cell-based, mice. The conditions noted are these: total CD4+ cells, after a week in culture with the cytokine alone.
Excerpt: (§3) FIG. 5. IL-7 and IL-2 favor T cell survival and the optimal expression of Bcl-2. Cells from TS/A-LACK tumor draining LN were labeled with the CFSE vital dye and cultured in the absence (−) or in the presence of IL-7, IL-2, IL-15 and IL-6 alone. After 7 days, cells were recovered and stained with anti-CD4 mAb and TO-PRO-3 (A) and with anti-Bcl-2 mAb (B, C). A) representative dot plots of total CD4^+ cells are shown. The frequencies of total CD4^+ TOPRO-3^+ (brackets) and of CFSE dim, TO-PRO-3″ cells (bold) are reported. B-C) events are shown after physical gating on viable CD4^+ T lymphocytes. C) thin line: isotype control; thin lines-shaded profile: anti-Bcl-2 Ab, medium cultured cells; thick lines: anti-Bcl-2 Ab, cytokine-cultured cells. The experiment is representative of 2 independent determinations.
as §2

For assay [6] the test system is unchanged. The assay is described as follows: Bcl-2 expression in CFSE-labeled LN cultures maintained in cytokines. As to conditions: 7 days culture with the cytokine alone. The assay is classed as cell-based, mice.
Excerpt: as §3
FIG. 6. Phenotype and subset representation of lymphocytes maintained in IL-7 and IL-2. CFSE-labeled TS/A-LACK-tumor-draining LN cultures were maintained for a week in the presence of IL-7 or IL-2. Thereafter the cells were stained with anti CD4, CD44, CD25, CD127, and CD132 mAbs. A) representative dot plots report the expression levels of CD44, CD62L, CD25, CD127, and CD132 of viable CD4+. B) overlay of CD4^+, CFSE dim cells derived from IL-7 (thin lines) and IL-2 (thick lines) cultures in the absence of Ag-stimulation are shown. […]

Here are results for 3 compounds from patent US11395835B2, “Use of common gamma chain cytokines for the visualization, isolation and genetic modification of memory T lymphocytes” (OSPEDALE SAN RAFFAELE S.R.L., priority 2005, dated 2022).

Turning to `CC(C)(C)n1nc(-c2ccc(Cl)cc2)c2c(N)ncnc21` [PP2], the “effect on IL-7-driven accumulation of fast-dividing CFSEdim CD4+ T cells and LACK-specific cells” value in assay [1] is on record as “only partially inhibited”.
Take `Oc1ccc(-c2nc(-c3ccncc3)c(-c3ccc(F)cc3)[nH]2)cc1` [SB202190]: the “effect on IL-7-driven accumulation of fast-dividing CFSEdim CD4+ T cells and LACK-specific cells” value in assay [1] is reported as “only partially inhibited”. In addition, the “effect on Ag-driven T cell proliferation” value in assay [2] is given as “failed to inhibit”.
In the case of “IL-6: recombinant IL-6 used as negative control cytokine”, in assay [3], the “in vitro proliferation of CD4+ T cells and accumulation of LACK-specific CD4+ T cells” value is “failed to support”. Further, the “frequency and total number of AH-1-specific CD8+ T cells” value in assay [4] is “not increased”. In addition, in assay [5], the “TO-PRO-3+ dead cells” value is 73%. In addition, the “CD4+ T cells expressing optimal (high) Bcl-2 levels” value in assay [6] is recorded as 10.5%.
